Measurements as given in patent US6676932B2, “Ultraviolet absorbent, photostabilizer, ultraviolet ray-absorbing composition, photostabilized composition and external preparation for skin” (Shiseido Co., Ltd., priority 2001, dated 2004).

Key:
Format in all cases: physicochemical
[1] = Dye stabilization effect in blend with sequestering agents (Test Examples 212 to 275); details: daylight exposure (80 MJ)
Protocol: Each test sample was prepared for observation of the change of the appearance of each test sample (determined visually) and measurement of the color difference (ΔE) before and after daylight exposure (80 MJ).
(§1) With a spectrophotometer, the color was measured on the Lab coordinate system, to calculate the color difference on the basis of the color before daylight exposure. More specifically, the color difference (ΔE) was calculated on the basis of the measured values (L1, a1, b1) before daylight exposure.

[2] = Drug stabilization effect under daylight exposure (Test Examples 182 to 211); design: key to Appearance (visual determination): ◯: no change; Δ: almost no change; x: change; details: photostabilizer 0.05 wt %, daylight exposure (80 MJ); for Remaining ratio (%): liquid chromatography
Protocol: (§2) For observation of the change of the appearance of each test sample (determination based on visual observation) and the measurement of the remaining ratio by liquid chromatography before and after daylight exposure (80 MJ), the test sample was prepared.

[3] = Stabilization effect on perfume under daylight exposure (Test Examples 92 to 181); design: key: ◯: no change; Δ: almost no change; x: change; details: daylight exposure (80 MJ)
Protocol: Each test sample was prepared for observation of the change of the odor of the test sample (determined by perfume coordinator) before and after daylight exposure (80 MJ).

[4] = Dye stabilization effect under daylight exposure (Test Examples 6-91); design: key to Δ E: color difference ΔE in Lab vs. color before daylight exposure; key to Appearance (visual determination): ◯: no change; Δ: almost no change; x: change; details: photostabilizer 0.05 wt %, daylight exposure (80 MJ)
Protocol: For observation of the change of the appearance of each test sample (determination based on visual observation) and the measurement of color difference (ΔE) before and after daylight exposure (80 MJ), the test sample was prepared.
as §1

[5] = Drug stabilization effect blended with sequestering agent (Test Examples 372 to 391); design: key to Appearance (visual determination): ◯: no change; Δ: almost no change; x: change; details: sequestering agent blend amount 0.03, photostabilizer 0, daylight exposure (80 MJ)
Protocol: Then, the photostabilization effect of the pyridazine derivative in combination with sequestering agents on each drug and the change of the appearance of each composition were examined, by using the following formulation for assessment.
as §2

[6] = drug Dipotassium glycyrrhizinate 0.05 wt %
[7] = base perfume Fruity, photostabilizer 0.1 wt %
[8] = base perfume Muge, photostabilizer 0.05 wt %
[9] = base perfume Spicy, photostabilizer 0.2 wt %
[10] = natural perfume Jasmine oil, photostabilizer 0.05 wt %
[11] = synthetic perfume Rose oxide, photostabilizer 0.2 wt %
[12] = dye Blue 1 (Brilliant Blue FCF) 0.0001 wt %
[13] = dye Green 3 (Fast Green FCF) 0.001 wt %
[14] = dye Red 227 (Acid Fuchsine D) 0.0001 wt %
[15] = dye Yellow 5 (Sunset Yellow FCF) 0.001 wt %
[16] = dyes Red 106 (Acid red) 0.00001 + Yellow 203 (Quinoline Yellow WS) 0.0001 wt %
[17] = drug L-ascorbic acid 2-glucoside 2.0 wt %
[18] = drug dibutylhydroxytoluene 0.01 wt %
[19] = drug dl-α-tocopherol 2-L-ascorbic acid phosphate diester potassium salt 0.01 wt %
[20] = dyes Red 213 (Rhodamine B) 0.00001 + Blue 1 (Brilliant Blue FCF) 0.00001 wt %
[21] = dyes Red 227 (Acid Fuchsine D) 0.0001 + Yellow 5 (Sunset Yellow FCF) 0.0001 wt %
[22] = dyes Red 401 (Violanin R) 0.0001 + Blue 1 (Brilliant Blue FCF) 0.00001 wt %
[23] = dyes Yellow 203 (Quinoline Yellow WS) 0.0001 + Yellow 5 (Sunset Yellow FCF) 0.0001 wt %
[24] = drug dl-α-tocopherol 2-L-ascorbic acid phosphate diester potassium salt 0.01
[25] = dye Blue 1 (Brilliant Blue FCF) 0.001, sequestering agent 0.05 alone, photostabilizer 0
[26] = dye Red 227 (Acid Fuchsine D) 0.0001, sequestering agent 0.02 alone, photostabilizer 0
[27] = drug Glycyrrhizinic acid dipotassium 0.05
[28] = drug L-ascorbic acid 2-glucoside 2.0
[29] = drug dibutylhydroxy toluene 0.01

Molecule: Oc1nnccc1N1CCOCC1 [3-Hydroxy-4-morpholinopyridazine, 3-hydroxy-4-morpholinopyridazine]
- Δ E ([1]; dyes Red 401 (Violanin R) 0.0001 + Blue 1 (Brilliant Blue FCF) 0.00001, no sequestering agent, photostabilizer blend amount 0.02): 1.34
- Δ E ([1]; dyes Red 401 (Violanin R) 0.0001 + Blue 1 (Brilliant Blue FCF) 0.00001, with ethylenediaminetetraacetate trisodium 0.03, photostabilizer blend amount 0.02): 0.91
- Appearance (visual determination) [2, 6]: ◯
- Remaining ratio (%) [2, 6]: 99.2%
- odor determination [3, 7]: ◯
- odor determination [3, 8]: ◯
- odor determination [3, 9]: ◯
- odor determination [3, 10]: ◯
- odor determination [3, 11]: ◯
- Appearance (visual determination) [4, 12]: ◯
- Δ E [4, 12]: 1.26
- Appearance (visual determination) [4, 13]: ◯
- Δ E [4, 13]: 0.48
- Appearance (visual determination) [4, 14]: ◯
- Δ E [4, 14]: 0.60
- Appearance (visual determination) [4, 15]: ◯
- Δ E [4, 15]: 0.62
- Appearance (visual determination) [4, 16]: ◯
- Δ E [4, 16]: 0.80

Molecule: COc1ccc(C(=O)CC(=O)c2ccc(C(C)(C)C)cc2)cc1 [4-tert-Butyl-4′-methoxydibenzoylmethane, reference compound]
- Appearance (visual determination) [2, 6]: Δ
- Remaining ratio (%) [2, 6]: 96.6%
- Appearance (visual determination) [2, 17]: Δ
- Remaining ratio (%) [2, 17]: 97.0%
- Appearance (visual determination) [2, 18]: Δ
- Remaining ratio (%) [2, 18]: 95.2%
- Appearance (visual determination) [2, 19]: Δ
- Remaining ratio (%) [2, 19]: 94.5%
- Appearance (visual determination) ([2]; drug salicylic acid 0.1 wt %): Δ
- Remaining ratio (%) ([2]; drug salicylic acid 0.1 wt %): 97.2%
- odor determination [3, 7]: Δ
- odor determination [3, 8]: Δ
- odor determination ([3]; base perfume Rose, photostabilizer 0.05 wt %): Δ
- odor determination [3, 9]: Δ
- odor determination ([3]; base perfume Woody, photostabilizer 0.1 wt %): Δ
- odor determination [3, 10]: Δ
- odor determination ([3]; natural perfume Lavender oil, photostabilizer 0.1 wt %): Δ
- odor determination ([3]; natural perfume Nelori oil, photostabilizer 0.1 wt %): Δ
- odor determination ([3]; natural perfume Rose oil, photostabilizer 0.05 wt %): Δ
- odor determination ([3]; natural perfume Ylang ylang oil, photostabilizer 0.2 wt %): Δ
- odor determination ([3]; synthetic perfume Citral, photostabilizer 0.1 wt %): Δ
- odor determination ([3]; synthetic perfume Limonene oil, photostabilizer 0.05 wt %): Δ
- odor determination ([3]; synthetic perfume Linalool, photostabilizer 0.05 wt %): Δ
- odor determination ([3]; synthetic perfume Linalyl acetate, photostabilizer 0.1 wt %): Δ
- odor determination [3, 11]: Δ
- Appearance (visual determination) [4, 12]: Δ
- Δ E [4, 12]: 1.49
- Appearance (visual determination) [4, 13]: Δ
- Δ E [4, 13]: 0.62
- Appearance (visual determination) [4, 14]: Δ
- Δ E [4, 14]: 0.95
- Appearance (visual determination) [4, 15]: Δ
- Δ E [4, 15]: 0.88
- Appearance (visual determination) [4, 16]: Δ
- Δ E [4, 16]: 1.02
- Appearance (visual determination) [4, 20]: Δ
- Δ E [4, 20]: 1.17
- Appearance (visual determination) [4, 21]: Δ
- Δ E [4, 21]: 0.80
- Appearance (visual determination) [4, 22]: Δ
- Δ E [4, 22]: 0.93
- Appearance (visual determination) [4, 23]: ◯
- Δ E [4, 23]: 0.48

Molecule: O=C([O-])CN(CCO)CCN(CC(=O)[O-])CC(=O)[O-].[Na+].[Na+].[Na+] [ethylenediaminehydroxyethyl trisodium triacetate]
- Appearance (visual determination) [5, 24]: x
- Remaining ratio (%) [5, 24]: 70.1%
- Δ E [1, 25]: 7.63
- Δ E [1, 26]: 1.43
- Δ E ([1]; dyes Red 106 (Acid Red) 0.00001 + Yellow 203 (Quinoline Yellow WS) 0.0001, sequestering agent blend amount 0.02, photostabilizer 0): 3.56
- Δ E ([1]; dyes Red 213 (Rhodamine B) 0.00001 + Blue 1 (Brilliant Blue FCF) 0.00001, sequestering agent blend amount 0.03, photostabilizer 0): 3.85

Molecule: sodium metaphosphate
- Appearance (visual determination) [5, 27]: x
- Remaining ratio (%) [5, 27]: 85.8%
- Appearance (visual determination) [5, 28]: x
- Remaining ratio (%) [5, 28]: 85.2%
- Appearance (visual determination) [5, 29]: x
- Remaining ratio (%) [5, 29]: 54.7%
- Δ E [1, 25]: 7.78
- Δ E ([1]; dye Green 3 (Fast Green FCF) 0.001, sequestering agent 0.1 alone, photostabilizer 0): 1.77
- Δ E [1, 26]: 1.37
- Δ E ([1]; dye Yellow 5 (Sunset Yellow FCF) 0.0001, sequestering agent 0.03 alone, photostabilizer 0): 1.68
- Δ E ([1]; dyes Red 227 (Acid Fuchsine D) 0.0001 + Yellow 203 (Quinoline Yellow WS) 0.0001, sequestering agent blend amount 0.02, photostabilizer 0): 3.01
- Δ E ([1]; dyes Red 401 (Violanin R) 0.0001 + Green 3 (Fast Green FCF) 0.00001, sequestering agent blend amount 0.03, photostabilizer 0): 4.23
- Δ E ([1]; dyes Yellow 203 (Quinoline Yellow WS) 0.0001 + Yellow 5 (Sunset Yellow FCF) 0.0001, sequestering agent blend amount 0.01, photostabilizer 0): 1.44
